In article PMC4545932, “Inhibition by stabilization: targeting the Plasmodium falciparum aldolase–TRAP complex” (Malaria Journal, 2015):

Molecular target: T1, rabbit muscle aldolase (Oryctolagus cuniculus, UniProt P00883)
T1 construct: gene ALDOA
T1 sequence (P00883 2-364): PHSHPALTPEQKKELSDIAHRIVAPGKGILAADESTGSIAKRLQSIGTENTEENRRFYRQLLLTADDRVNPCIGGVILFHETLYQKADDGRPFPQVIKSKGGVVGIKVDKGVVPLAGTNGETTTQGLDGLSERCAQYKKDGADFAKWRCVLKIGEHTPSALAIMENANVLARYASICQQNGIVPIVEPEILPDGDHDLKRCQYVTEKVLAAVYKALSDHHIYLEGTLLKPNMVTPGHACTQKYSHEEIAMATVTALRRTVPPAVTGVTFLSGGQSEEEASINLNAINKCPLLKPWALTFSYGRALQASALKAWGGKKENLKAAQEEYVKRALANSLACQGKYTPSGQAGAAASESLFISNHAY
Assay: coupled NADH assay (alpha-GDH/TPI), […] nm
Format: biochemical
Details: 2 mM F16P; pH 7.3; 25 °C; no TRAP peptide

O=P(O)(O)OC[C@H]1OC(O)(COP(=O)(O)O)[C@@H](O)[C@@H]1O (stereo partly shown) [fructose 1,6-bisphosphate]
coupled NADH assay (alpha-GDH/TPI), 340 nm: The assay was performed as described previously, however in the absence of TRAP-peptide
